Reference: BindingDB's records for doi:10.1021/jm800588x (Eberhard Karls University Tuebingen, 2008)

Tests used:
[1] = target: T1, Polyunsaturated fatty acid 5-lipoxygenase (Homo sapiens, UniProt P09917); assay: Determination of 5-LO Product Formation in Intact Cells (EC50/IC50); conditions: pH 7.4; 37 °C
T1 sequence (P09917 whole entry): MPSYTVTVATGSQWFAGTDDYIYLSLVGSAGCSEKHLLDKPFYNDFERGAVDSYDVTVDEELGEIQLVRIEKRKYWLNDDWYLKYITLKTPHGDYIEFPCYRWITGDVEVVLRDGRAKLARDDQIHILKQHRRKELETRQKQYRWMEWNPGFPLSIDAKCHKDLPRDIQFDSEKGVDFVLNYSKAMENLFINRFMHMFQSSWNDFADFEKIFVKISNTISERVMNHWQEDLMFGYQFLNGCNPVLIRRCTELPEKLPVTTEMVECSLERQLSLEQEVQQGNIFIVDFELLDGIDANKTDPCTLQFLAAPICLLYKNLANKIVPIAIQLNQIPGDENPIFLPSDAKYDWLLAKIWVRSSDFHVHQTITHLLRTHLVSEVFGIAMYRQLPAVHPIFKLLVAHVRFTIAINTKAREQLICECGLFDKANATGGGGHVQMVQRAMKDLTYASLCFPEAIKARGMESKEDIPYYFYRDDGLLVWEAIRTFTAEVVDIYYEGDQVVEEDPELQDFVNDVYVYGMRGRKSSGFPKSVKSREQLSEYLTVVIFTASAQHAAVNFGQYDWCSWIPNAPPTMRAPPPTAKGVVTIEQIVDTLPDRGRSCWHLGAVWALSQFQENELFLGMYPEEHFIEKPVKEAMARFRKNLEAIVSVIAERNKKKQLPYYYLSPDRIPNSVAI
Procedure: For assays of intact cells, 5000,000 freshly isolated PMNL cells were resuspended in PGC buffer. After preincubation with the test compounds for 15 min at RT, 5-LO product formation was started by addition of ionophore A23187 plus arachidonic acid. Formed 5-LO metabolites were extracted and analyzed by HPLC. 5-LO product formation is expressed as ng of 5-LO products per 1000,000 cells, which includes LTB4 and its all-trans isomers, and 5(S)-hydro(pero)xy-6-trans- 8,11,14-cis-eicosatetraenoic acid.

[2] = target: T1, Polyunsaturated fatty acid 5-lipoxygenase; assay: Determination of 5-LO Product Formation in Cell-Free Systems (IC50).; conditions: pH 7.4; 37 °C
Procedure: For determination of the activity of 5-LO in 100000g supernatants, aliquots of the supernatants were added to reaction mix, and were preincubated with the test compounds before arachidonic acid was added to start 5-LO product formation. Formed 5-LO metabolites were extracted and analyzed by HPLC. 5-LO product includes LTB4 and its all-trans isomers, and 5(S)-hydro(pero)xy-6-trans- 8,11,14-cis-eicosatetraenoic acid. IC50s are expressed as mean +/- SE, obtained from measurements at 4-5 different concentrations of test compounds, and determined using Graphpad Instat (Graphpad Software Inc., San Diego, CA). EC50/IC50 values were obtained from product formation in PMNL intact cells.

Row | Structure (SMILES) | EC50 [1] [nM] | EC50 [2] [µM]
1 | CCCCCCC(Sc1nc(Cl)cc(Nc2cccc(C)c2C)n1)C(=O)O (stereo not given) [2-({4-chloro-6-[(2,3-dimethylphenyl)amino]pyrimidin-2-yl}sulfanyl)octanoic acid] | 4100 | –
2 | O=C(O)CSc1nc(Cl)cc(Nc2cccc3c2CCC3)n1 [2-{[4-chloro-6-(2,3-dihydro-1H-inden-4-ylamino)pyrimidin-2-yl]sulfanyl}acetic acid] | 3900 | –
3 | CCOC(=O)C(Sc1nc(Cl)cc(Nc2cccc(C)c2C)n1)c1ccccc1 (stereo not given) [ethyl 2-({4-chloro-6-[(2,3-dimethylphenyl)amino]pyrimidin-2-yl}sulfanyl)-2-phenylacetate] | 1800 | –
4 | CCCCCCC(Sc1nc(Cl)cc(NCc2ccc3ncccc3c2)n1)C(=O)OCC (stereo not given) [ethyl 2-({4-chloro-6-[(quinolin-6-ylmethyl)amino]pyrimidin-2-yl}sulfanyl)octanoate] | – | 37
5 | CCOC(=O)CSc1nc(Cl)cc(Nc2cccc3c2CCC3)n1 [ethyl 2-{[4-chloro-6-(2,3-dihydro-1H-inden-4-ylamino)pyrimidin-2-yl]sulfanyl}acetate] | 3200 | –
6 | CCOC(=O)C(Sc1nc(Cl)cc(Nc2ccc3ncccc3c2)n1)c1ccccc1 (stereo not given) [ethyl 2-{[4-chloro-6-(quinolin-6-ylamino)pyrimidin-2-yl]sulfanyl}-2-phenylacetate] | 1200 | –
7 | CCOC(=O)CSc1nc(Cl)cc(Nc2ccc3ncccc3c2)n1 [ethyl 2-{[4-chloro-6-(quinolin-6-ylamino)pyrimidin-2-yl]sulfanyl}acetate] | 2600 | –
8 | CCCCC(Sc1nc(Cl)cc(Nc2ccc3ncccc3c2)n1)C(=O)OCC (stereo not given) [ethyl 2-{[4-chloro-6-(quinolin-6-ylamino)pyrimidin-2-yl]sulfanyl}hexanoate] | 1100 | –
9 | CCCCCCC(Sc1nc(Cl)cc(Nc2ccc3ncccc3c2)n1)C(=O)OCC (stereo not given) [ethyl 2-{[4-chloro-6-(quinolin-6-ylamino)pyrimidin-2-yl]sulfanyl}octanoate] | – | 19
10 | CCCCCCC(Sc1nc(Cl)cc(Oc2ccc3ncccc3c2)n1)C(=O)OCC (stereo not given) [ethyl 2-{[4-chloro-6-(quinolin-6-yloxy)pyrimidin-2-yl]sulfanyl}octanoate] | 1700 | –
